Assay results: patent US20240255531A1, “MATURE ADRENOMEDULLIN FOR THERAPY STRATIFICATION OF CORTICOSTEROIDS IN CRITICALLY ILL PATIENTS” (priority 2021, published 2024)
Where two headings read alike, the source gives them in different places.

Tests used:
[1] = system: hypothalamic-pituitary-adrenal axis suppression; settings: cited from earlier work
[2] = relative to hydrocortisone; cited from earlier work
[3] = relative to hydrocortisone; cited from earlier work; remark: listed apart in the source
[4] = system: adult patients with severe sepsis who were not in septic shock; assay: HYPRESS case-control analysis, hydrocortisone vs. placebo by bio-ADM </>70 pg/mL (PP population); type: in vivo, human; settings: for patients who developed shock: PP population
Experimental: The HYPRESS study is a double-blind, randomized clinical trial conducted from Jan. 13, 2009, to Aug. 27, 2013, with a follow-up of 180 days until Feb. 23, 2014 (Keh et al. 2016. JAMA 316(17): 1775-1785). The trial was performed in 34 intermediate or intensive care units of university and community hospitals in Germany, and it included 380 adult patients with severe sepsis who were not in septic shock.
Patients were screened in intermediate care units or intensive care units (ICUs) of university and community hospitals for eligibility, and written informed consent was obtained from patients, patient-authorized representatives, or legal representatives. Patients were enrolled if they met all inclusion criteria: (1) provided informed consent; (2) had evidence of infection; (3) had evidence of a systemic response to infection, defined as at least 2 systemic inflammatory response syndrome criteria 12; and (4) had evidence of organ dysfunction present for not longer than 48 hours. The main exclusion criterion was septic shock. Other exclusion criteria were being younger than 18 years, having known hypersensitivity to hydrocortisone or mannitol (placebo), or having a history of glucocorticoid medication with indication for continuation of therapy or other indications for treatment with glucocorticoids. Patients were not excluded for using etomidate within 72 hours before enrolment, using a short course of glucocorticoids within 72 hours before enrolment, or using topical or inhaled glucocorticoids.
Septic shock was defined as sepsis-induced hypotension despite adequate volume status for longer than 4 hours (ie, mean arterial pressure <65 mm Hg, systolic arterial pressure <90 mm Hg, or the use of vasopressors to keep mean arterial pressure ≥65 mm Hg or systolic arterial pressure ≥90 mm Hg). […] Adequate volume status was defined as a central venous pressure of 8 mm Hg or greater (≥12 mm Hg in ventilated patients) and a central venous oxygen saturation greater than 70%. For fluid replacement, patients were to receive at least 500 to 1000 mL of crystalloids or 300 to 500 mL of colloids over 30 minutes. The use of hydroxyethyl starch preparations was discouraged owing to possible harmful effects on kidney function. Use of vasopressors was defined as therapy with dopamine at a dosage of at least 5 μg/kg/min or with any dose of epinephrine, norepinephrine, vasopressin, or other vasopressors.
The study medication (hydrocortisone and placebo) was produced and released by BAG Health Care GmbH. The medication was delivered in boxes, each containing 17 brown glass vials for 1 patient. Each vial contained 100 mg of lyophilized hydrocortisone hydrogen succinate or the same amount of lyophilized mannitol as placebo, which was indistinguishable from hydrocortisone. The medication was administered as an intravenous bolus of 50 mg, followed by a 24-hour continuous infusion of 200 mg on 5 days, 100 mg on days 6 and 7, 50 mg on days 8 and 9, and 25 mg on days 10 and 11.
For the present analysis, a total of n=110 cases and controls from the intention-to-treat data set of the SepNet study HYPRESS study (ClinicalTrials.gov number: NCT00670254) were selected, of which n=97 were treated according to protocol and selected for the analysis. Patients with and without septic shock during their ICU stay were selected at a 1:1 ratio. Control patients were matched according to demographics, organ dysfunction, concomitant medication and other outcomes.
The primary end point for the case-control study was the occurrence of septic shock within 28 days, or discharge from the ICU. The goal was to identify potential interaction between the levels of bio-ADM (</>70 pg/mL) and treatment arm (hydrocortisone vs. placebo).

[5] = system: patients with septic shock; settings: hydrocortisone alone; cited from earlier work
[6] = system: patients at risk for sepsis / septic shock; settings: preventive administration; cited from earlier work
[7] = Stability of human Adrenomedullin in human Citrate plasma at 24° C.; type: in vitro ADME; settings: for recovery: 10 ng ADM/ml, read-out: Average ADM recovery (N = 5); for Average loss of immune reactivity: average over time points
Experimental: Human ADM was diluted in human Citrate plasma (n=5, final concentration 10 ng ADM/ml) and incubated at 24° C. At selected time points, aliquots were frozen at −20° C.

## C[C@H]1C[C@@H]2[C@H]([C@@H](O)C[C@@]3(C)[C@H]2CC[C@]3(O)C(=O)CO)[C@@]2(C)C=CC(=O)C=C12 [Methylprednisolone]
[1]
  Half-life duration of action: 12 to 36 h

## C[C@]12C=CC(=O)C=C1CC[C@@H]1[C@@H]2[C@@H](O)C[C@@]2(C)[C@H]1CC[C@]2(O)C(=O)CO [Prednisolone]
[2]
  Potency relat. to hydrocortisone, Anti-inflammatory: 4
[3]
  Potency relat. to hydrocortisone, Mineralcorticoid: 0.8
[1]
  Half-life duration of action: 12 to 36 h

## C[C@]12CCC(=O)C=C1CC[C@@H]1[C@@H]2[C@@H](O)C[C@@]2(C)[C@H]1CC[C@]2(O)C(=O)CO [Hydrocortisone]
[4]; patients with bio-AD<70 pg/mL
  needed additional treatment with Benzodiazepine: 12.0%
[4]; patients with bio-ADM<70 pg/mL
  median length of stay: 22 days
  needed a surgical intervention: 48.0%
  needed additional treatment with Propofol: 16.0%
  needed additional treatment with opioids: 40.0%
  survived the 90-day follow up: 76.0%
  patients who developed shock: 40%
[4]; patients with bio-ADM>70 pg/mL
  median length of stay: 25 days
  needed a surgical intervention: 27.3%
  needed additional treatment with Benzodiazepine: 13.6%
  needed additional treatment with Propofol: 4.5%
  needed additional treatment with opioids: 31.8%
  survived the 90-day follow up: 72.7%
  patients who developed shock: 50%
[2]
  Potency relat. to hydrocortisone, Anti-inflammatory: 1
[3]
  Potency relat. to hydrocortisone, Mineralcorticoid: 1
[5]
  survival effect: no survival effect
[6]
  risk of a septic shock within 14 days: doesn't reduces the risk
[1]
  Half-life duration of action: 8 to 12 h

## C[C@]12C=CC(=O)C=C1CC[C@@H]1[C@@H]2C(=O)C[C@@]2(C)[C@H]1CC[C@]2(O)C(=O)CO [Prednisone]
[1]
  Half-life duration of action: 12 to 36 h

## CC(=O)OCC(=O)[C@@]1(O)CC[C@H]2[C@@H]3CCC4=CC(=O)CC[C@]4(C)[C@H]3C(=O)C[C@@]21C [Cortisone acetate]
[2]
  Potency relat. to hydrocortisone, Anti-inflammatory: 0.8
[3]
  Potency relat. to hydrocortisone, Mineralcorticoid: 0.8
[1]
  Half-life duration of action: 8 to 12 h

## C[C@]12CCC(=O)C=C1CC[C@H]1[C@@H]3CC[C@](O)(C(=O)CO)[C@@]3(C)C[C@H](O)[C@@]12F [Fludrocortisone]
[1]
  Half-life duration of action: 24 to 36 h

## CC[C@H](C)[C@H](NC(=O)[C@H](CCC(N)=O)NC(=O)[C@H](Cc1c[nH]cn1)NC(=O)[C@H](C)NC(=O)[C@H](CC(C)C)NC(=O)[C@H](CCCCN)NC(=O)[C@H](CCC(N)=O)NC(=O)[C@@H](NC(=O)[C@@H](NC(=O)[C@@H]1CSSC[C@H](NC(=O)CNC(=O)[C@H](Cc2ccccc2)NC(=O)[C@H](CO)NC(=O)[C@H](CCCNC(=N)N)NC(=O)[C@H](CC(C)C)NC(=O)CNC(=O)[C@H](CCC(N)=O)NC(=O)[C@H](Cc2ccccc2)NC(=O)[C@H](CC(N)=O)NC(=O)[C@H](CC(N)=O)NC(=O)[C@H](CCSC)NC(=O)[C@H](CO)NC(=O)[C@H](CCC(N)=O)NC(=O)[C@H](CCCNC(=N)N)NC(=O)[C@@H](N)Cc2ccc(O)cc2)C(=O)N[C@@H](CCCNC(=N)N)C(=O)N[C@@H](Cc2ccccc2)C(=O)NCC(=O)N[C@@H]([C@@H](C)O)C(=O)N1)[C@@H](C)O)C(C)C)C(=O)N[C@@H](Cc1ccc(O)cc1)C(=O)N[C@@H](CCC(N)=O)C(=O)N[C@@H](Cc1ccccc1)C(=O)N[C@H](C(=O)N[C@@H](CC(=O)O)C(=O)N[C@@H](CCCCN)C(=O)N[C@@H](CC(=O)O)C(=O)N[C@@H](CCCCN)C(=O)N[C@@H](CC(=O)O)C(=O)N[C@@H](CC(N)=O)C(=O)N[C@H](C(=O)N[C@@H](C)C(=O)N1CCC[C@H]1C(=O)N[C@@H](CCCNC(=N)N)C(=O)N[C@@H](CO)C(=O)N[C@@H](CCCCN)C(=O)N[C@H](C(=O)N[C@@H](CO)C(=O)N1CCC[C@H]1C(=O)N[C@@H](CCC(N)=O)C(=O)NCC(=O)N[C@@H](Cc1ccc(O)cc1)C(N)=O)[C@@H](C)CC)C(C)C)[C@@H](C)O [hADM]
[7]; 0 h
  recovery: 100%
[7]; 2 h
  Loss of immune reactivity %/h: 0.4 %/h
  recovery: 99.2%
[7]; 4 h
  Loss of immune reactivity %/h: 0.8 %/h
  recovery: 96.4%
[7]; 8 h
  Loss of immune reactivity %/h: 1.5 %/h
  recovery: 88.2%
[7]
  Average loss of immune reactivity: Average: 0.9%/h
[7]; listed as ADM
  Average loss of immune reactivity: 0.9 %/h
[7]; human citrate plasma, 2 h, read-out: Relative loss of immune reactivity
  metabolised at 2 h, 10 ng/ml: 0.8%
[7]; human citrate plasma, 4 h, read-out: Relative loss of immune reactivity
  metabolised at 4 h, 10 ng/ml: 3.6%
[7]; human citrate plasma, 8 h, read-out: Relative loss of immune reactivity
  metabolised at 8 h, 10 ng/ml: 11.8%
